Molecules are shown by their SMILES. “And” between values parts separate entries of the source, which are not always exact repeats. Equal entries are not always repeated.

The test system of assay [1] is Bcl-2. In words: Bcl-2 phosphorylation in PA-1 ovarian cancer cells. It is filed as cell-based. Particulars: PA-1 cells. How it is done: (§1) Experiments were performed to determine the activity of two of the sesquiterpene compounds isolated from Inula britannica, OABL and OODABL, as cancer preventative agents. Using a Western blot technique, the ability of these compounds to phosphorylate Bcl-2 in cancer cells was examined. […] OODABL induced Bcl-2 phosphorylation at lower effective doses, 2.5 and 5 μM.
(§2) In two ovarian cancer cell lines, OVCAR and PA-1, similar results were seen. In OVCAR cells, OODABL induced Bcl-2 phosphorylation at a dose of 5 μM, while OABL induced Bcl-2 phosphorylation at a dose of 10 μM. In PA-1 cells, OODABL induced Bcl-2 phosphorylation at a dose of 5 μM, while OABL induced Bcl-2 phosphorylation at a dose of 10 μM.

In a further assay the test system is PA-1 cells. In words: MTT cell viability assay, PA-1. Type of assay: cell-based. How it is done: (§3) Cell viability was then assessed in a microculture tetrazolium/formazan assay (MTT; Scudiero, D. A. et al. 1988. Cancer Res. 48:4827-4833) using a variety of cell lines. Absorbance was measured at 550 nm and cell viability was expressed as the percentage of drug treated cells relative to that of controls. The IC50 was then defined as the concentration of drug that produced a 50% decrease in cell viability relative to controls. OODABL was first tested in a variety of cell lines. […] In NIH 3T3 (normal mouse fibroblasts) cells treated with various concentrations of OODABL (1, 10, 20 and 50 μM OODABL), cell viability was decreased in a dose-dependent manner with an IC50 of 50 μM.
(§4) OABL was then tested in some of these same cell lines. In MCF-7 cells, OABL was tested at doses of 0.3 nm, 3 nm, 30 nm, 300 nm, 3 μM, and 30 μM.

Assay [2] deals with Bcl-2. The assay can be described thus: Bcl-2 phosphorylation in OVCAR ovarian cancer cells. It is filed as cell-based. How it is done:
as §1, §2

A further assay has as its system PARP. The assay can be described thus: PARP cleavage (apoptosis indicator) by Western blot in PA-1 cells. Type of assay: cell-based. Particulars: 24 hours. How it is done:
Using cleavage of PARP as an indicator of apoptosis, the compositions of the present invention were tested in PA-1 ovary cells. PARP is a 116 kD nuclear poly (ADP-ribose)polymerase that appears to be involved in DNA-repair, predominantly in response to environmental stress (Satoh, M. S. and T. Lindahl. 1992. Nature 356:356-358). PARP is important for cells to maintain their viability. Cleavage of PARP facilitates cellular disassembly and serves as a marker of cells undergoing apoptosis (Oliver, F. J. et al. 1998. J. Biol. Chem. 273:33533-33539). This protein can be cleaved by many ICE caspases to form a 85 kD protein in cells undergoing apoptosis. PA-1 cells were treated with OODABL for 24 hours. Cells were lysed and PARP cleavage was measured by Western Blot using a monoclonal antibody to PARP (Pharmingen, Inc., San Diego, Calif.). OABL induced PARP cleavage at doses of 10 and 20 μM, while OODABL induced PARP cleavage at a dose of 5 μM.
A general note: A western blot detects proteins with antibodies after separation by electrophoresis.

The subject of assay [3] is Bcl-2. The assay can be described thus: Bcl-2 phosphorylation in a prostate cancer cell line. It is filed as cell-based. As to the method:
as §1
In a prostate cancer cell line, these compounds were also able to induce Bcl-2 phosphorylation. OODABL induced Bcl-2 phosphorylation at a dose of 5 μM while OABL induced Bcl-2 phosphorylation at a dose of 10 μM.

The subject of a further assay is DU-145 cells. In words: MTT cell viability assay, DU-145. Type of assay: cell-based. As to the method:
as §3, §4

For assay [4], the system named is Bcl-2. The assay can be described thus: Bcl-2 phosphorylation by Western blot in MCF-7 cells. Type of assay: cell-based. Particulars: MCF-7 breast cancer cells. As to the method: as §1
Assay [5] concerns microtubules (tubulin) in MCF-7 cells. In words: Microtubule indirect immunofluorescence in MCF-7 cells. It is filed as cell-based. Conditions: 12 hours. How it is done:
The effect of OODABL on microtubules was examined by indirect immunofluorescence of MCF-7 cells using an antibody to tubulin after 12 hours treatment with either a vehicle control, 10 μM paclitaxel (positive control), or 20 μM OODABL.

In assay [6] the test system is phosphomutant BRK-4B-Bcl-2 cells. In words: Clonogenic assay, phosphomutant BRK-4B-Bcl-2. Type of assay: cell-based, rat. Particulars: 15 days, read-out: IC50 clonogenic assay (colonies counted). As to the method: (§5) Cell cytotoxicity was also assessed by a clonogenic assay. MCF-7 breast cells were treated with various concentrations of OODABL (625 nm, 1.25, 2.5, 5 and 10 μM) for 15 days and cells were then stained with methylene blue and colonies counted. […] PC-3 prostate cells were treated with various concentrations of OODABL (20 and 200 nm, and 2 and 20 μM) for 15 days and cells were then stained with methylene blue and colonies counted. The IC50 was in the range of 200 nm OODABL. RKO cells were treated with various concentrations of OODABL (20 and 200 nm, and 2 and 20 μM) for 15 days and cells were then stained with methylene blue and colonies counted. The IC50 was in the range of 20 μM OODABL. Baby rat kidney cells were transformed with E1A and transfected with the Bcl-2 gene to form BRK-4B-Bcl-2 cells. These cells were treated with various concentrations of OODABL (20 and 200 nm, and 2, 10 and 20 μM) for 15 days and cells were then stained with methylene blue and colonies counted. The IC50 was in the range of 200 nM OODABL. Baby rat kidney cells were transformed with E1A and transfected with Bcl-2 gene in which phosphorylation sites were mutated to form phosphomutant BRK-4B-Bcl-2 cells. These cells were treated with various concentrations of OODABL (20 and 200 nm, and 2 and 20 μM) for 15 days and cells were then stained with methylene blue and colonies counted. […]

A further assay deals with MCF-7 cells. The assay can be described thus: MTT cell viability assay, MCF-7. It is filed as cell-based. As to the method: as §3, §4
(Tetrazolium assays rely on reduction of a dye to a coloured formazan, in cell work by metabolically active cells.)

Assay [7] has as its system Bcl-2. In words: Bcl-2 phosphorylation by Western blot in non-mutated BRK-4B-Bcl-2 cells. Particulars: 12 hours. Type of assay: cell-based, rat. As to the method: (§6) The level of Bcl-2 phosphorylation was then assessed in the non-mutated and mutated BRK-4B-Bcl-2 cells using a Western blot assay. Cells were initially treated for 12 hours with the test compound, OODABL (at concentrations of 10, 20, 30, 40, or 60 μM). Taxol was used as a positive control at a concentration of 5 μM. Cells were then lysed in ice cold radio-immune precipitation buffer with inhibitors. Equivalent amounts of proteins were electrophoresed by 12% dodecyl sulfate-polyacrylamide gel electrophoresis and transferred to nitrocellulose. Bcl-2 and phosphorylated Bcl-2 proteins were detected using a monoclonal Bcl-2 primary antibody and a secondary goat anti-mouse horseradish peroxidase conjugated antibody followed by enhanced chemiluminescence detection.

For a further assay, the system named is BRK-4B-Bcl-2 cells. The assay can be described thus: Clonogenic assay, BRK-4B-Bcl-2. Particulars: 15 days, read-out: IC50 clonogenic assay (colonies counted). Type of assay: cell-based, rat. How it is done: as §5
In assay [8] the test system is breast cancer cell line T47D. In words: Cell cycle analysis by flow cytometry. It is filed as cell-based. Particulars: T47D cells, 20 μM, compared to control cells. How it is done:
The effect of OODABL on cell cycle was analyzed by flow cytometery using breast cancer cell lin T47D.
On the technique in general: Flow cytometry measures light scatter and fluorescence of single cells or particles in a stream.

Another assay relates to PC-3 prostate cells. The assay can be described thus: Clonogenic assay, PC-3. Type of assay: cell-based. Conditions: PC-3 cells, 15 days; read-out: IC50 clonogenic assay (colonies counted). As to the method:
as §5

Assay [9] relates to NIH 3T3 (normal mouse fibroblasts) cells. In words: MTT cell viability assay, NIH 3T3. It is filed as cell-based. As to the method:
as §3

For the next assay, the system named is RKO cells. The assay can be described thus: Clonogenic assay, RKO. It is filed as cell-based. Conditions: 15 days, read-out: IC50 clonogenic assay (colonies counted). As to the method:
as §5

In another assay the test system is HL-60 cells. In words: TUNEL assay (APO-BRDU flow cytometry), late apoptosis. It is filed as cell-based. Particulars: 12 hours. As to the method:
In a TUNEL assay, the effect of OODABL on late apoptosis was examined. HL-60 cells lines were subjected to flow cytometry analysis using APO-BRDU. Apoptosis was detected by incorporation of Br-dUTP using a fluorescein labeled anti-BrdU monoclonal antibody after treatment with a vehicle control, 1 μM camptothecin or 20 μM OODABL for 12 hours.

Assay [10] relates to Bcl-2 (phosphorylation sites mutated). In words: Bcl-2 phosphorylation by Western blot in mutated BRK-4B-Bcl-2 cells. It is filed as cell-based. Particulars: mutated rat kidney cells, 12 hours. As to the method: as §6

For `C=C1C(=O)OC2CC(C)=C(C(C)CCCOC(C)=O)C(O)C12` (stereo not drawn) [OABL, 1-O-acetylbritannilactone], the “dose inducing Bcl-2 phosphorylation” value with Bcl-2 [1], in the assay on Bcl-2 [2] and with Bcl-2 [3] was 10 µM each time. In the assay on PA-1 cells, this compound registered an IC50 of around 2 µM. In the assay with PARP, the “dose inducing PARP cleavage” value is 10 µM and 20 µM. Besides, in the assay on DU-145 cells (Du-145 cells, 4.68-100 μM), the “cell viability (MTT), result in words” value is listed as “decreased cell viability”. Besides, the “effective dose inducing Bcl-2 phosphorylation” value in the assay with Bcl-2 [4] was 10 µM and 20 µM.
For the compound `C=C1C(=O)OC2CC(C)=C(C(C)CCCOC(C)=O)C(OC(C)=O)C12` (stereo not drawn) [OODABL, 1,6-O,O-diacetylbritannilactone], in assay [5] (20 μM), the effect on microtubules result was “polymerized microtubules”. For the same compound, the “dose inducing Bcl-2 phosphorylation” value with Bcl-2 [1], in the assay on Bcl-2 [2] and in the assay with Bcl-2 [3] was 5 µM each time. For the same compound, the IC50 in [6] was around 2 µM; in the assay with MCF-7 cells, below 12.5 µM; in the assay on PA-1 cells, below 7.82 µM; in the assay on BRK-4B-Bcl-2 cells, around 0.2 µM; in the assay on PC-3 prostate cells, around 0.2 µM; in assay [9] it was 50 µM. Besides, the IC50 in the assay with RKO cells was around 20 µM; in the assay on DU-145 cells (DU-145 cells) it was below 15.6 µM. Also, the “level of Bcl-2 phosphorylation” value with Bcl-2 [7] (non-mutated cells, 10, 20, 30, 40, or 60 μM) was “dose-dependent increase in Bcl-2 phosphorylation”; in [10] (10-60 μM) it was “no phosphorylation evident”. In assay [8], the “effect on cell cycle” value is listed as “arrested cells at the G2/M phase”. In addition, the “dose inducing PARP cleavage” value in the assay with PARP was found to be 5 µM. Further, the “late apoptosis (Br-dUTP incorporation)” value in the assay on HL-60 cells (20 μM) was “induce apoptosis”. Moreover, the “effective dose inducing Bcl-2 phosphorylation” value in the assay on Bcl-2 [4] is 2.5 µM and 5 µM.
As for `CC[C@@]1(O)C(=O)OCc2c1cc1n(c2=O)Cc2cc3ccccc3nc2-1` [camptothecin, reference compound], the “late apoptosis (Br-dUTP incorporation)” value with HL-60 cells (1 μM, positive control) is reported as “induce apoptosis”.
Take `CC(=O)O[C@H]1C(=O)[C@@]2(C)[C@H]([C@H](OC(=O)c3ccccc3)[C@]3(O)C[C@H](OC(=O)[C@H](O)[C@@H](NC(=O)c4ccccc4)c4ccccc4)C(C)=C1C3(C)C)[C@]1(OC(C)=O)CO[C@@H]1C[C@@H]2O` [paclitaxel, reference compound]: the effect on microtubules result in assay [5] (10 μM, positive control) is reported as “polymerized microtubules”. Also, the “level of Bcl-2 phosphorylation” value with Bcl-2 [7] (non-mutated cells, 5 μM, positive control) is recorded as “increased in protein phosphorylation”; in assay [10] (5 μM), “no phosphorylation evident”. In addition, the “effective dose inducing Bcl-2 phosphorylation” value in the assay with Bcl-2 [4] came to 100 µM.

In general, IC50 refers to the midpoint of a concentration-inhibition curve.

Source of the values: patent publication US6627623B2, “Inducing cell apoptosis and treating cancer using 1-O-acetylbritannilactone or 1,6-O,O-diacetylbritannilactone” (priority 2001, dated 2003).
